Experimental data from ChEMBL document CHEMBL1201862, “PubChem BioAssay data set” (2004).
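Protocol summary: plate cells (96-well), add compound at 5 concentrations, incubate 48 h, interpolate endpoints linearly. Abbreviation: GI50, concentration required for 50% inhibition of growth.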 Activity calls are given as the source filed them. No stated cut-off is given here; in the data, active = GI50 up to about 1.1 µM and inactive = higher. Non-standard residues stand in square brackets, D forms with d. Residues, ends and D or L forms follow the SMILES beside them. *: point of attachment. Benzoyl(4-OMe) = COc1ccc(C(=O)*)cc1; 2Thi = N[CH](Cc1cccs1)C(=O)O

Columns and labels:
Assay in all cases: inhibition of tumour cell growth, NCI panel, 48 h
[1] = system: SW-620
[2] = system: UACC-62
[3] = system: T47D
[4] = system: RPMI-8226
[5] = system: A549
[6] = system: OVCAR-3
[7] = system: KM12
[8] = system: NCI-H226
[9] = system: OVCAR-5
[10] = system: M14
[11] = system: BT-549
[12] = system: K562
[13] = system: U-251
[14] = system: SNB-75
[15] = system: SK-OV-3
[16] = system: DU-145
[17] = system: SF-295
[18] = system: HCC 2998
[19] = system: NCI-H23

Structure (SMILES) | GI50 [1] | GI50 [2] | GI50 [3] | GI50 [4] | GI50 [5] | GI50 [6] | GI50 [7] | GI50 [8] | GI50 [9] | GI50 [10] | GI50 [11] | GI50 [12] | GI50 [13] | GI50 [14] | GI50 [15] | GI50 [16] | GI50 [17] | GI50 [18] | GI50 [19]
COc1cc2c(=O)cnoc2cc1O | > 100 µM (inactive) | > 100 µM (inactive) | > 100 µM (inactive) | > 100 µM (inactive) | > 100 µM (inactive) | > 100 µM (inactive) | > 100 µM (inactive) | > 100 µM (inactive) | > 100 µM (inactive) | > 100 µM (inactive) | > 100 µM (inactive) | > 100 µM (inactive) | > 100 µM (inactive) | > 100 µM (inactive) | > 100 µM (inactive) | > 100 µM (inactive) | > 100 µM (inactive) | > 100 µM (inactive) | > 100 µM (inactive)
COC(=O)C1CCC(=O)N1C(c1ccc(OC)cc1)c1ccc(OC)cc1 (stereo unspecified) | > 100 µM (inactive) | > 100 µM (inactive) | 78.9 µM (inactive) | > 100 µM (inactive) | > 100 µM (inactive) | > 100 µM (inactive) | > 100 µM (inactive) | > 100 µM (inactive) | > 100 µM (inactive) | > 100 µM (inactive) | > 100 µM (inactive) | > 100 µM (inactive) | > 100 µM (inactive) | > 100 µM (inactive) | > 100 µM (inactive) | > 100 µM (inactive) | > 100 µM (inactive) | > 100 µM (inactive) | > 100 µM (inactive)
CCC(C)C(NC(=O)C(Cc1cccs1)NC(=O)C(CC(C)C)NC(=O)C(CC(C)C)NC(=O)C(CCCCN)NC(=O)C(CCCNC(=N)N)NC(=O)c1ccc(OC)cc1)C(=O)NC(CC(C)C)C(N)=O (stereo unspecified) ({Benzoyl(4-OMe)}-RKLL[2Thi]IL-NH2; configuration not given here) | > 100 µM (inactive) | > 100 µM (inactive) | > 100 µM (inactive) | > 100 µM (inactive) | > 100 µM (inactive) | > 100 µM (inactive) | > 100 µM (inactive) | > 100 µM (inactive) | > 100 µM (inactive) | > 100 µM (inactive) | > 100 µM (inactive) | > 100 µM (inactive) | > 100 µM (inactive) | > 100 µM (inactive) | > 100 µM (inactive) | > 100 µM (inactive) | > 100 µM (inactive) | > 100 µM (inactive) | > 100 µM (inactive)
O=C(O)C1CC(O)CN1 (stereo unspecified) | > 100 µM (inactive) | > 100 µM (inactive) | > 100 µM (inactive) | > 100 µM (inactive) | > 100 µM (inactive) | > 100 µM (inactive) | > 100 µM (inactive) | > 100 µM (inactive) | > 100 µM (inactive) | > 100 µM (inactive) | > 100 µM (inactive) | > 100 µM (inactive) | > 100 µM (inactive) | > 100 µM (inactive) | > 100 µM (inactive) | > 100 µM (inactive) | > 100 µM (inactive) | > 100 µM (inactive) | > 100 µM (inactive)
Cc1cc(/N=C/c2ccc(N(C)C)cc2)n(-c2ccccc2)n1 | 34.9 µM (inactive) | 86.7 µM (inactive) | 18.5 µM (inactive) | 91.8 µM (inactive) | 42.4 µM (inactive) | 9.16 µM (inactive) | 16.7 µM (inactive) | 50.5 µM (inactive) | > 100 µM (inactive) | 49.2 µM (inactive) | 51.3 µM (inactive) | 44.6 µM (inactive) | 27.4 µM (inactive) | 40.6 µM (inactive) | 20.2 µM (inactive) | 35.6 µM (inactive) | 30.8 µM (inactive) | 20.1 µM (inactive) | 51.2 µM (inactive)
OCC(O)C(O)C(O)C(O)c1nc2cc(Cl)ccc2[nH]1 (stereo unspecified) | > 100 µM (inactive) | > 100 µM (inactive) | > 100 µM (inactive) | > 100 µM (inactive) | > 100 µM (inactive) | > 100 µM (inactive) | > 100 µM (inactive) | 26.2 µM (inactive) | > 100 µM (inactive) | > 100 µM (inactive) | > 100 µM (inactive) | > 100 µM (inactive) | > 100 µM (inactive) | > 100 µM (inactive) | 56.4 µM (inactive) | > 100 µM (inactive) | 28.8 µM (inactive) | > 100 µM (inactive) | > 100 µM (inactive)
CC(=O)OC12c3ccccc3C(c3ccccc31)C1C(=O)N(c3ccccc3O)C(=O)C12 (stereo unspecified) | > 100 µM (inactive) | > 10 µM (inactive) | > 100 µM (inactive) | 66.5 µM (inactive) | > 100 µM (inactive) | 90.8 µM (inactive) | 92.7 µM (inactive) | > 100 µM (inactive) | > 100 µM (inactive) | > 100 µM (inactive) | > 100 µM (inactive) | > 100 µM (inactive) | > 100 µM (inactive) | 46.3 µM (inactive) | > 100 µM (inactive) | > 100 µM (inactive) | 80.2 µM (inactive) | > 100 µM (inactive) | 41.6 µM (inactive)
O=C(NNC(=O)c1ccccc1O)c1cccc(Br)c1 | 35 µM (inactive) | 47.3 µM (inactive) | > 51.6 µM (inactive) | 15.2 µM (inactive) | 25.5 µM (inactive) | 8.47 µM (inactive) | > 42.6 µM (inactive) | 23.2 µM (inactive) | > 100 µM (inactive) | 26.9 µM (inactive) | > 100 µM (inactive) | 46.7 µM (inactive) | > 100 µM (inactive) | > 71.8 µM (inactive) | 54.1 µM (inactive) | 30.2 µM (inactive) | 27.3 µM (inactive) | 17.7 µM (inactive) | > 100 µM (inactive)
N#Cc1cc(-c2nc3cc(F)ccc3s2)ccc1N | > 100 µM (inactive) | 14.9 µM (inactive) | < 0.012 µM (active) | > 100 µM (inactive) | 1.84 µM (inactive) | 19.8 µM (inactive) | 0.059 µM (active) | 3.34 µM (inactive) | 0.0702 µM (active) | 33.6 µM (inactive) | 2.3 µM (inactive) | > 100 µM (inactive) | 12.4 µM (inactive) | 1.59 µM (inactive) | 20.7 µM (inactive) | 53.1 µM (inactive) | 20.4 µM (inactive) | < 0.01 µM (active) | < 0.01 µM (active)
CC(=O)O[C@H]1C(=O)[C@@]2(C)[C@H]([C@H](OC(=O)c3ccccc3)[C@]3(O)C[C@H](OC(=O)[C@H](OC(=O)OCCC(O)CO)[C@@H](NC(=O)c4ccccc4)c4ccccc4)C(C)=C1C3(C)C)[C@]1(OC(C)=O)CO[C@@H]1C[C@@H]2O (stereo partly specified) | < 0.01 µM (active) | < 0.01 µM (active) | < 0.01 µM (active) | < 0.01 µM (active) | < 0.0103 µM (active) | < 0.01 µM (active) | < 0.01 µM (active) | < 0.01 µM (active) | < 0.016 µM (active) | < 0.01 µM (active) | < 0.0159 µM (active) | < 0.01 µM (active) | < 0.01 µM (active) | < 0.0114 µM (active) | 0.0104 µM (active) | < 0.01 µM (active) | 0.0192 µM (active) | < 0.01 µM (active) | < 0.01 µM (active)
c1ccc2c(c1)CC1COc3ccccc3C1O2 (stereo unspecified) | 46.8 µM (inactive) | > 100 µM (inactive) | 51.4 µM (inactive) | 27.5 µM (inactive) | 50.1 µM (inactive) | 67.8 µM (inactive) | 44.2 µM (inactive) | > 100 µM (inactive) | > 100 µM (inactive) | > 100 µM (inactive) | 70.3 µM (inactive) | > 100 µM (inactive) | 54.3 µM (inactive) | > 100 µM (inactive) | > 100 µM (inactive) | > 100 µM (inactive) | 64.4 µM (inactive) | 42.3 µM (inactive) | 67.1 µM (inactive)
OC(O)(C(F)(F)F)C(F)(F)F | > 100 µM (inactive) | > 100 µM (inactive) | > 100 µM (inactive) | > 100 µM (inactive) | > 100 µM (inactive) | > 100 µM (inactive) | > 100 µM (inactive) | > 100 µM (inactive) | > 100 µM (inactive) | > 100 µM (inactive) | > 100 µM (inactive) | > 100 µM (inactive) | > 100 µM (inactive) | > 100 µM (inactive) | > 100 µM (inactive) | > 100 µM (inactive) | > 100 µM (inactive) | > 100 µM (inactive) | > 100 µM (inactive)
CC(C)CNc1nc(N)nc(O)c1NC=O | > 100 µM (inactive) | > 100 µM (inactive) | > 100 µM (inactive) | > 100 µM (inactive) | > 100 µM (inactive) | > 100 µM (inactive) | > 100 µM (inactive) | > 100 µM (inactive) | > 100 µM (inactive) | > 100 µM (inactive) | > 100 µM (inactive) | > 100 µM (inactive) | > 100 µM (inactive) | > 100 µM (inactive) | > 100 µM (inactive) | > 100 µM (inactive) | > 100 µM (inactive) | > 100 µM (inactive) | > 100 µM (inactive)
CC(=O)NC(Cc1c[nH]cn1)C(=O)N1CCCC1C(N)=O (stereo unspecified) | > 100 µM (inactive) | > 100 µM (inactive) | > 100 µM (inactive) | > 100 µM (inactive) | > 100 µM (inactive) | > 100 µM (inactive) | > 100 µM (inactive) | > 100 µM (inactive) | > 100 µM (inactive) | > 100 µM (inactive) | > 100 µM (inactive) | > 100 µM (inactive) | > 100 µM (inactive) | > 100 µM (inactive) | > 100 µM (inactive) | > 100 µM (inactive) | > 100 µM (inactive) | > 100 µM (inactive) | > 100 µM (inactive)
